In patent US7799803B2, “Hydroxamic acid compounds and methods of use thereof” (The Trustees of Columbia University in the City of New York, priority 2003, dated 2010):
Read-outs that look alike come from different tables or passages of the source.

Assays:
[1] = target: T1, histone deacetylase, subtype 1 (HDAC1) (Homo sapiens, UniProt Q13547); assay: HDAC1-Flag in vitro deacetylation assay; assay type: biochemical
T1 construct: Flag; made in house
Protocol: Novel compounds were tested for their ability to inhibit histone deacetylase, subtype 1 (HDAC1) using an in vitro deacetylation assay. The enzyme source for this assay was an epitope-tagged human HDAC1 complex immuno-purified from stably expressing mammalian cells. The substrate consisted of a commercial product containing an acetylated lysine side chain (Biomol, Plymouth Meeting, Pa.). Upon deacetylation of the substrate by incubation with the purified HDAC1 complex, a fluorophore is produced that is directly proportional to the level of deacetylation. Using a substrate concentration at the Km for the enzyme preparation, the deacetylation assay was performed in the presence of increasing concentrations of novel compounds to semi-quantitatively determine the concentration of compound required for 50% inhibition (IC50) of the deacetylation reaction.

[2] = system: human bladder carcinoma cell line, T24; assay: T24 cell-based proliferation assay; details: T-24, T24 cells treated 72 hours, DNA quantitated with bisbenzamide, Table 3, read-out: Cell Growth Inhbition, IC50
Protocol: Proliferation The novel compounds of the present invention were tested for their ability to inhibit growth of the human bladder carcinoma cell line, T24. Cells were treated with compounds for 72 hours, lysed by freeze/thaw to expose the DNA, and then the DNA was quantitated using the intercalating dye, bisbenzamide (Sigma). Fluorescent intensity (ex 350λ em 460λ) was directly proportional to the number of cells per well. Fluorescence values from vehicle-treated cells were determined and used as 100%.

[3] = Table 4, additional compounds, n = 2, read-out: HDAC inhibition IC50
[4] = epitope-tagged human HDAC1 complex, substrate concentration at Km, Table 2, read-out: HDAC Inhibition IC50

T1 sequence (Q13547 whole entry): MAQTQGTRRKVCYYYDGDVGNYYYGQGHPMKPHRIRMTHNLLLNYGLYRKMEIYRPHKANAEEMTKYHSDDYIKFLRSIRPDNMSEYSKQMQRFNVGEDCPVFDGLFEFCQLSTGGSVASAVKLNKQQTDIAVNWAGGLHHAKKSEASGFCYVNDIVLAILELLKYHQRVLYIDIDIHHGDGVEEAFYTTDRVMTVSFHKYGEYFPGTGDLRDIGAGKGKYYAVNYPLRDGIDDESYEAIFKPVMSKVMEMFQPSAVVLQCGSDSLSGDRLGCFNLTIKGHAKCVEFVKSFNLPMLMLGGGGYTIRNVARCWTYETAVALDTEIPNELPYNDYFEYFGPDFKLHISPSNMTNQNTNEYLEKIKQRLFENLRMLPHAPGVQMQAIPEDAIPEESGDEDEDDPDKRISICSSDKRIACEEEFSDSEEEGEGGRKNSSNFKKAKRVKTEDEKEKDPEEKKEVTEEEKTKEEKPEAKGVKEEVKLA

| SMILES | IC50 [1, 3] [µM] | IC50 [2] [µM] | IC50 [1, 4] [µM] |
| --- | --- | --- | --- |
| O=C(CCCCCC(C(=O)NCCc1ccccc1)C(=O)NCCc1ccccc1)NO [Compound 13] | 0.186 ± 0.0219 |  |  |
| O=C(CCCCC[C@H](NC(=O)c1ccccc1)C(=O)Nc1ccc2ncccc2c1)NO [Compound 6b, (2S)-2-BENZOYLAMINO-OCTANEDIOIC ACID 8-HYDROXYAMIDE 1-QUINOLIN-6-YLAMIDE] |  | 0.2 | 0.0018 |
| O=C(CCCCC[C@H](NC(=O)c1cccnc1)C(=O)NCc1ccccc1)NO [Compound 5] |  | 9.2 | 0.15 |
| O=C(CCCCC[C@H](NC(=O)c1ccc2ccccc2n1)C(=O)Nc1cccc2cccnc12)NO [Compound 10] |  | 1.4 | 0.0418 |
| O=C(CCCCC[C@H](NC(=O)c1ccc2ccccc2n1)C(=O)Nc1ccc2ncccc2c1)NO [Compound 7] |  | 0.6 | 0.0545 |
| O=C(CCCCC[C@H](NC(=O)OCc1ccccc1)C(=O)NCc1ccccc1)NO [Compound 2] |  | 1.4 | 0.0374 |
| O=C(CCCCC[C@H](NC(=O)c1ccc2ccccc2n1)C(=O)NCc1ccccc1)NO [Compound 3] |  | 1.7 | 0.0527 |
| O=C(CCCCC[C@H](NC(=O)c1cccnc1)C(=O)Nc1ccc2ncccc2c1)NO [Compound 8] |  | 1.8 | 0.0016 |
| O=C(CCCCC[C@H](NC(=O)c1cccnc1)C(=O)Nc1cccc2cccnc12)NO [Compound 9] |  | 0.4 | 0.0041 |
| O=C(CCCCC[C@H](NC(=O)c1ccccc1)C(=O)Nc1cccc2cccnc12)NO [Compound 11] |  | 0.3 | 0.0127 |
| O=C(CCCCC[C@H](NC(=O)c1ccccc1)C(=O)NCc1ccccc1)NO [Compound 4] |  | 3.2 | 0.073 |
| O=C(CCCCC[C@H](NC(=O)OCc1ccccc1)C(=O)Nc1ccc2ncccc2c1)NO [Compound 6a, (S)-[6-HYDROXYCARBAMOYL-1-(QUINOLIN-6-YLCARBAMOYL)-HEXYL]-CARBAMIC ACID BENZYL ESTER] |  | 0.2 | 0.0059 |
| O=C(CCCCCC(C(=O)NCc1ccccc1)C(=O)NCc1ccccc1)NO [Compound 12] | 0.156 ± 0.0226 |  |  |
